Assay results taken from patent publication US7973083B2, “Pesticidally active compounds” (priority 2003, dated 2011).

How the values were obtained:
Format in all cases: in vivo
Corn ‘NK58D1 = experiment: Field test, corn phytotoxicity after herbicide with or without insecticide (Table I); conditions: scale 0-100
Protocol: (§1) Field tests were conducted in the following way: Corn was seeded with standard sowing implements and grown under natural conditions until the 2-3 leaf stage of corn was reached. Corn with or without insecticide treatments applied at seeding was grown at the same time. At 2-3 leaf stage, the herbicides only or in combination with the insecticide, if the insecticide has not been applied at seeding, was applied broadcast foliar over the top. At highest phytotoxicity levels for corn at five days after application and at maximal weed control levels at 16 days after application, the trial was evaluated.

Sweet Corn ‘Jubilee SS = experiment: Field test, sweet corn phytotoxicity after herbicide with or without insecticide (Table I); conditions: scale 0-100
Protocol: as §1

Amaranthus retroflexus = experiment: Field test, weed control (Table I); conditions: scale 0-100
Protocol: as §1

Corn Cecilia = experiment: Glasshouse test, insecticide pre-plant incorporated followed by post application of herbicide, corn phytotoxicity (Table 2); conditions: no insecticide, 20 days after last application
Text: (§2) Insecticide Pre-Plant Incorporated Followed by Post Application of the Herbicide
(§3) Prior to the planting of corn and weed, the substrate was filled into plastic pots and the different insecticides were applied with glasshouse spray equipment on bare soil at rates indicated in the results table. After the insecticide application, the substrate in the pots was mixed up in order to get an even distribution of the insecticide throughout the pot Crop and weed were planted following this procedure and grown under standard glasshouse conditions allowing optimal plant growth until 2-3 leaf stage. Then the herbicides were applied according to the rates indicated in the results table post emergent foliar over the top including standard adjuvants. The plants were visually evaluated on a scale of 0-100% wherein 0% indicated no phytotoxicity and 100% indicated full control or death. 0-15% indicates acceptable crop tolerance, 85-100% acceptable weed control. The evaluation was done at the time when maximal phytotoxicity or activity occurred.

Solanum Nigrum [1] = experiment: Glasshouse test, insecticide pre-plant incorporated followed by post application of herbicide, weed control (Table 2); conditions: no insecticide, 43 days after last application
Text: as §2, §3

Corn Sweet honeycomb = experiment: Glasshouse test, insecticide and herbicide tank-mixed post emergent, corn phytotoxicity (Table 3); conditions: no insecticide, 8 days after last application
Text: (§4) Insecticide and Herbicide Applied Tank-Mixed Post Emergent
as §3, with “pots.” for “pots and the different insecticides were applied with glasshouse spray equipment on bare soil at rates indicated in the results table. After the insecticide application, the substrate in the pots was mixed up in order to get an even distribution of the insecticide throughout the pot”, “according” for “according to”

Solanum Nigrum [2] = experiment: Glasshouse test, insecticide and herbicide tank-mixed post emergent, weed control (Table 3); conditions: no insecticide, 34 days after last application
Text: as §4
as §3, with “pots.” for “pots and the different insecticides were applied with glasshouse spray equipment on bare soil at rates indicated in the results table. After the insecticide application, the substrate in the pots was mixed up in order to get an even distribution of the insecticide throughout the pot”, “according” for “according to”

[3] = insecticide alone, in furrow at seeding 11.2 GA/100 Row M, 5 days
[4] = insecticide alone, post 1120 GA/Ha, 5 days
[5] = insecticide alone, in furrow at seeding 11.2 GA/100 Row M, 16 days
[6] = herbicide post, mesotrione 210 GA/Ha (a.e. for Cu), no insecticide, 5 days after last application
[7] = herbicide post 400 GA/Ha, scale 0-100

CCOP(=S)(OCC)Oc1nc(Cl)c(Cl)cc1Cl [Chlorpyrifos]
Phytotox. (Corn ‘NK58D1; [3]): 0% | Phytotox. (Corn ‘NK58D1; [4]): 0% | Phytotox. (Sweet Corn ‘Jubilee SS; [3]): 0% | Phytotox. (Sweet Corn ‘Jubilee SS; [4]): 0% | Weed Control (Amaranthus retroflexus; [5]): 0% | Weed Control (Amaranthus retroflexus; insecticide alone, post 1120 GA/Ha, 16 days): 0%

CS(=O)(=O)c1ccc(C(=O)C2C(=O)CCCC2=O)c([N+](=O)[O-])c1 [Mesotrione, 2-(2′-nitro-4′-methylsulphonylbenzoyl)-1,3-cyclohexanedione]
Phytotox. (Corn ‘NK58D1; herbicide post, mesotrione 105 GA/Ha (a.e. for Cu), no insecticide, 5 days after last application, COC 1% V/V + UAN 2.5% V/V): 3.8% | Phytotox. (Corn ‘NK58D1; [6]): 8.8% | Phytotox. (Sweet Corn ‘Jubilee SS; herbicide post, mesotrione 105 GA/Ha (a.e. for Cu), no insecticide, 5 days after last application): 16.3% | Phytotox. (Sweet Corn ‘Jubilee SS; [6]): 15% | Weed Control (Amaranthus retroflexus; herbicide post, mesotrione 105 GA/Ha (a.e. for Cu), no insecticide, 16 days after last application): 90% | Weed Control (Amaranthus retroflexus; herbicide post, mesotrione 210 GA/Ha (a.e. for Cu), no insecticide, 16 days after last application): 95% | Phytotox. (Corn Cecilia; herbicide post 100 GA/Ha): 5% | Phytotox. (Corn Cecilia; herbicide post 200 GA/Ha): 0% | Phytotox. (Corn Cecilia; [7]): 0% | Weed Control (Solanum Nigrum [1]; herbicide post 100 GA/Ha): 98% | Weed Control (Solanum Nigrum [1]; herbicide post 200 GA/Ha): 100% | Weed Control (Solanum Nigrum [1]; [7]): 0% | Phytotox. (Corn Sweet honeycomb; herbicide post 100 GA/Ha): 10% | Phytotox. (Corn Sweet honeycomb; herbicide post 200 GA/Ha): 20% | Phytotox. (Corn Sweet honeycomb; [7]): 20% | Weed Control (Solanum Nigrum [2]; herbicide post 100 GA/Ha): 100% | Weed Control (Solanum Nigrum [2]; herbicide post 200 GA/Ha): 100% | Weed Control (Solanum Nigrum [2]; [7]): 100%

CCOP(=S)(OCC)SCSC(C)(C)C [Terbufos]
Phytotox. (Corn ‘NK58D1; [3]): 0% | Phytotox. (Sweet Corn ‘Jubilee SS; [3]): 0% | Weed Control (Amaranthus retroflexus; [5]): 0%
